The record followed here is patent publication US8940863B2, “Selective anticancer chimeric peptides which bind neuropilin receptor” (Stella Pharma Corporation, priority 2008, dated 2015).

The subject of data set [1] is PE cell (pancreatic epidermal). The data set is described as follows: Cell viability assay (WST-8). It counts as cell-based. Conditions: read-out: IC50. From the text:
(§1) Correlation between IC50 values was observed.
For orientation: Tetrazolium assays rely on reduction of a dye to a coloured formazan, in cell work by metabolically active cells.

The next data set relates to HEK293T. It counts as cell-based. The note with it: 72 h.
A further data set concerns A172. Kind of data set: Cell viability assay (WST-8). It counts as cell-based. Conditions: 72 h.
The subject of the next data set is KCCT873. The data set is described as follows: Cell viability assay (WST-8). It counts as cell-based. The note with it: 72 h.
The subject of a further data set is U251. Conditions: 72 h.
In a further data set the test system is WI-38. The note with it: 72 h.
The next data set deals with MRC-5. Kind of data set: Cell viability assay (WST-8).
Data set [2] concerns the target recombinant human EGF receptor (rhEGFR) (Homo sapiens, UniProt P00533). Kind of data set: BIACORE binding to EGFR protein. The procedure: Surface plasmon resonance (SPR) experiments were performed with a BIACORE biosensor system 3000 (BIACORE Inc., Uppsala, Sweden). About 5000 RU of streptavidin (Sigma) was immobilized on the surface of CM5 sensor chips via N-hydroxysuccinimide and N-ethyl-N′-(dimethylaminopropyl) carbodiimide activation chemistry, and then 2000-3000 RU of peptide conjugated with biotin were injected over the streptavidin-immobilized sensor chip. As a control of nonspecific binding, the unreacted carboxymethyl groups of a sensor chip without immobilized streptavidin were blocked with ethanolamine. As an analyte, cell surface proteins which were prepared using the Mem-PER eukaryotic membrane protein extraction reagent kit (Pierce) were injected over the flow-cell in the flow rate of […]. at 25° C. […] All protein concentrations used in these experiments were determined by the Bradford method (Bradford M M. A rapid and sensitive method for the quantitation of microgram quantities of protein utilizing the principle of protein-dye binding. Anal Biochem 1976; 72:248-54). […]
Among the aforementioned mutated peptides, first, paying attention to the second H which has charge, K- and R-mutants were chemically synthesized. As described in Example 1, using BIACORE, binding affinity with recombinant human EGFR was evaluated by comparison with that of wild-type EGFR-binding peptide. […]
Background: SPR reads the build-up and loss of mass on a sensor chip optically.

For data set [3], the system named is HC cell (hepatocyte cell). The data set is described as follows: Cell viability assay (WST-8). The format is cell-based, human. Conditions: Human normal hepatocyte cell; 48 hours (Table 8); read-out: IC50.
Description: as §1

For the next data set, the system named is SU8686. Kind of data set: Annexin V flow cytometry. The format is cell-based, human. The note with it: 10 μM, three hours at 37° C. On the procedure:
SU8686 cells were incubated with Sema3A (363-377)-kLytic peptide (10 μM) for three hours at 37° C., and were analyzed for Annexin V labeling by dual-color flow cytometry.
On the technique in general: A flow cytometer gives signals particle by particle.

Another data set concerns SU.86.86. The note with it: for IC50: 48 h.
A further data set has as its system H322. The note with it: H322; 72 hours.
The test system of the next data set is T47D. The data set is described as follows: Cell viability assay (WST-8). The note with it: T47D breast cancer cells; 48 hours (Table 6); read-out: IC50. It counts as cell-based, human.
Description: as §1

The test system of another data set is BT-20. The note with it: BT20 breast cancer cells; 48 hours (Table 6).
The next data set has as its system SK-BR-3. The note with it: SKBR3; 72 hours.

Like-named read-outs stand apart in the source and are kept apart here. Non-standard residues stand in square brackets, D forms with d. Residues, ends and D or L forms follow the SMILES beside them. No end group written: not given here.

Take `CC[C@H](C)[C@H](NC(=O)[C@H](CC(C)C)NC(=O)[C@H](CCC(N)=O)NC(=O)[C@@H](N)CCCCN)C(=O)N[C@@H](CCCNC(=N)N)C(=O)N[C@@H](Cc1ccccc1)C(=O)N[C@@H](CC(C)C)C(=O)N[C@@H](CCCCN)C(=O)N[C@@H](CCCNC(=N)N)C(=O)N[C@@H](CC(C)C)C(=O)N[C@@H](CC(=O)O)C(=O)N[C@@H](CCCNC(=N)N)C(=O)N[C@@H](CC(N)=O)C(=O)NCC(=O)NCC(=O)NCC(=O)N[C@@H](CCCCN)C(=O)N[C@@H](CC(C)C)C(=O)N[C@H](CC(C)C)C(=O)N[C@@H](CC(C)C)C(=O)N[C@@H](CCCCN)C(=O)N[C@H](CC(C)C)C(=O)N[C@@H](CC(C)C)C(=O)N[C@H](CCCCN)C(=O)N[C@H](CCCCN)C(=O)N[C@@H](CC(C)C)C(=O)N[C@@H](CC(C)C)C(=O)N[C@@H](CCCCN)C(=O)N[C@H](CC(C)C)C(=O)N[C@@H](CC(C)C)C(=O)N[C@@H](CCCCN)C(=O)N[C@@H](CCCCN)C(=O)N[C@@H](CCCCN)C(=O)O` [IL4-lytic (L, D)] (H-KQLIRFLKRLDRNGGGKL[dL]LK[dL]L[dK][dK]LLK[dL]LKKK-OH; N-terminus and C-terminus assumed): the half-maximal inhibitory concentration (IC50) in data set [1] (PE normal cells, 72 hours, Mean ± SD (Table 4)) was over 20 µM; with HEK293T, 14.2 ± 1.3 µM; with A172, 6.8 ± 0.4 µM; with KCCT873, 5.9 ± 0.6 µM; in the data set with U251 it was 6.6 ± 0.4 µM; in the data set with BxPC-3 (72 h), 6.8 ± 0.3 µM. Also, the IC50 with WI-38 amounted to 16.1 ± 0.5 µM; with MDA-MB-231 (72 h) it was 5.7 ± 0.4 µM.
As for “YHWYGYTPQNVIGGGLKLLKKLLKKLLKLL-NH2 (C-terminal amide; EB-original Lytic peptide; position 18, 21, 23, 24 and 28 are D-amino acids, and -CONH2 is existing at C-terminal.)”, the “cytotoxicity to normal cell line MRC-5” value in the data set with MRC-5 (MRC-5, 72 hours) is given as “killed even normal cell line (MRC-5) at lower concentration”.
With “YRWYGYTPQNVI (EGFR binding peptide) [R-substituted peptide]”, in [2], the “biosensor response compared with wild-type EGFR-binding peptide” value was “response of two fold of wild-type”.
For the compound `CC(C)C[C@H](NC(=O)[C@H](CC(C)C)NC(=O)[C@@H](CCCCN)NC(=O)[C@@H](CCCCN)NC(=O)[C@H](CC(C)C)NC(=O)[C@@H](CC(C)C)NC(=O)[C@H](CCCCN)NC(=O)[C@H](CC(C)C)NC(=O)[C@@H](CC(C)C)NC(=O)[C@H](CC(C)C)NC(=O)[C@H](CCCCN)NC(=O)CNC(=O)CNC(=O)CNC(=O)[C@H](CCCNC(=N)N)NC(=O)[C@@H]1CCCN1C(=O)[C@H](Cc1ccc(O)cc1)NC(=O)[C@@H]1CCCN1C(=O)[C@@H](NC(=O)[C@H](CCCNC(=N)N)NC(=O)CNC(=O)[C@H](CCC(N)=O)NC(=O)[C@H](Cc1ccc(O)cc1)NC(=O)[C@@H]1CCCN1C(=O)[C@@H](NC(=O)[C@H](Cc1c[nH]c2ccccc12)NC(=O)[C@H](CCC(N)=O)NC(=O)[C@H](Cc1ccc(O)cc1)NC(=O)[C@@H](N)CC(N)=O)C(C)C)C(C)C)C(=O)N[C@@H](CCCCN)C(=O)N[C@H](CC(C)C)C(=O)N[C@@H](CC(C)C)C(=O)N[C@@H](CCCCN)C(=O)N[C@@H](CCCCN)C(=O)N[C@@H](CCCCN)C(=O)O` [Sema3A(aa363-377)-kLytic] (H-NYQWVPYQGRVPYPRGGGKL[dL]LK[dL]L[dK][dK]LLK[dL]LKKK-OH; N-terminus and C-terminus assumed), the IC50 in [1] (Pancreatic epidermal cell, normal cells, 48 hours (Table 8)) is over 20 µM; in [3], 37.5 µM; with BxPC-3 (48 h), 5.7 ± 2.3 µM; with SU.86.86 it was 5.2 ± 0.4 µM; with CFPAC-1 (48 h) it was 6.7 ± 0.1 µM; with Panc-1 (48 h) it was 13 ± 2.7 µM. In addition, the IC50 in the data set on MRC-5 (MRC-5 normal cells, 48 hours (Table 8)) is over 50 µM. Also, the “Annexin V-positive dead cells” value in the data set on SU8686 (listed as Sema3A (363-377)-kLytic) is on record as “increased”; in the data set on SU8686 (listed as Sema3A(363-377)-kLytic), “induces Annexin V-positive expression”.
For “YKWYGYTPQNVI (EGFR binding peptide) [K-substituted peptide]”, in [2], the “biosensor response compared with wild-type EGFR-binding peptide” value is “some enhancement of biosensor response”.
Consider “YHWYGYTPQNVIGGGLKLLKKLLKKLLKLL-NH2 (YHWYGYTPQNVIGGGLK[dL]LK[dK]L[dL][dK]KLL[dK]LL-NH2; N-terminus assumed; SMILES CC[C@H](C)[C@H](NC(=O)[C@@H](NC(=O)[C@H](CC(N)=O)NC(=O)[C@H](CCC(N)=O)NC(=O)[C@@H]1CCCN1C(=O)[C@@H](NC(=O)[C@H](Cc1ccc(O)cc1)NC(=O)CNC(=O)[C@H](Cc1ccc(O)cc1)NC(=O)[C@H](Cc1c[nH]c2ccccc12)NC(=O)[C@H](Cc1c[nH]cn1)NC(=O)[C@@H](N)Cc1ccc(O)cc1)[C@@H](C)O)C(C)C)C(=O)NCC(=O)NCC(=O)NCC(=O)N[C@@H](CC(C)C)C(=O)N[C@@H](CCCCN)C(=O)N[C@H](CC(C)C)C(=O)N[C@@H](CC(C)C)C(=O)N[C@@H](CCCCN)C(=O)N[C@H](CCCCN)C(=O)N[C@@H](CC(C)C)C(=O)N[C@H](CC(C)C)C(=O)N[C@H](CCCCN)C(=O)N[C@@H](CCCCN)C(=O)N[C@@H](CC(C)C)C(=O)N[C@@H](CC(C)C)C(=O)N[C@H](CCCCN)C(=O)N[C@@H](CC(C)C)C(=O)N[C@@H](CC(C)C)C(N)=O) [EB-original lytic peptide]”, for which, in the data set with H322, the “cell-killing effect of chimeric peptide compared with lytic moiety alone” value is reported as “did not show enhancement of cytotoxic activity”.
With `CC(C)C[C@H](NC(=O)[C@H](CCCCN)NC(=O)[C@@H](CC(C)C)NC(=O)[C@H](CC(C)C)NC(=O)[C@H](CCCCN)NC(=O)[C@H](CCCCN)NC(=O)[C@H](CC(C)C)NC(=O)[C@@H](CC(C)C)NC(=O)[C@@H](CCCCN)NC(=O)[C@H](CCCCN)NC(=O)[C@H](CC(C)C)NC(=O)[C@H](CC(C)C)NC(=O)[C@@H](CCCCN)NC(=O)[C@H](CC(C)C)NC(=O)[C@@H](N)CC(C)C)C(=O)O` [nLytic, LLKLLKKLLKKLLKL] (H-LL[dK]LLK[dK][dL]LKKL[dL]KL-OH; N-terminus and C-terminus assumed), the IC50 is over 50 µM in data set [1] (Pancreatic epithelium normal cells, 48 hours (Table 5)); 12.5 µM with T47D; 38 µM in the data set on BT-20; 38.5 µM in the data set on BxPC-3 (48 h); 19.5 µM with SU.86.86; 29.6 µM in the data set on MDA-MB-231 (48 h). Also, the IC50 in the data set on CFPAC-1 (CFPAC-1 cancer cells, 48 hours (Table 5)) is 22.6 µM; in the data set on Panc-1 (Panc-1 cancer cells, 48 hours (Table 5)), 28.2 µM.
For “NYQWVPYQGRVPYPRGGGKLLLKLLKKLLKLLKKK (Sema3A-lyticL chimeric peptide)”, the “cell-killing effect compared with LyticL alone” value in the data set on SU.86.86 (SU86.86, 72 hours) is recorded as “cell-killing effect was enhanced”; in the data set with SK-BR-3 it was “cell-killing effect was enhanced”.

One may read the IC50 as the midpoint of a concentration-inhibition curve.
